Where a SMILES comes first, the peptide text is derived from it. The star is where a group is joined. Cbz = O=C(OCc1ccccc1)*
What was measured:
Type in all cases: cell-based
HCT116 cells [1] = test: Western blot of E2F1 related proteins and phos-4EBP1
Protocol: FIGS. 9B-9C show network of E2F1 (FIG. 9B) and cMyb (FIG. 9C).
(§1) FIGS. 10A-10F depicts p97 inhibition impairs the transcriptional activity of E2F1 by downregulating the CCND1/CDK complex. […] Data was analyzed using the g:Profiler website. Shading indicates the gene is a potential target of transcription factor c-Myb or E2F1. Blank indicates it is not a target gene. FIG. 10B depicts known regulatory network of the CCND1/CDK/RB1/E2F1 pathway. […] HCT116 cells were treated with 1 μM MG132, 2 μM CB-5083 or 4 μM of NMS-874 for 6 h. FIGS. 10E and 10F show transcriptional activity of E2F1 measured using E2F1 reporter assay. HCT116 cells were transfected with pGL2-AN plasmid (Addgene: 20950) for 24 h. Then cells were plated in 384 well plate and incubated for 16 h. The luminescence were detected after 8 h treatment with MG132, CB-5083 or NMS-873. Data are shown as mean±SD, n=3. f, qRT-PCR analysis of ATF3, DHFR and CCND1 RNAs following treatment with MG132, CB-5083 or NMS-874. HCT116 cells were treated for 2, 6 and 24 h using the same concentration as proteomic and western blot assay (n=4).
To investigate whether the protein translation was inhibited by p97 or proteasome inhibitor, the phosphorylation state of eukaryotic translation initiation factor 4E-binding protein 1 (4E-BP1) was examined. Phosphorylation of 4E-BP1 serves to increase total protein translation. […] The effect of p97 inhibition on specific protein levels arises from a change in transcript levels. To examine how transcript levels might be affected, potential transcription factor binding sites (TFBSs) in the promoters of these 33 genes in the TRANSFAC database were examined. […] By examining protein-protein interaction networks related to E2F1 and MYB in the STRING database, 11 E2F1 interactors were found (FIG. 9B) and 11 MYB interactors (FIG. 9C). […] Therefore it was determined to further investigate the role of E2F1, rather than MYB, in cells responding to p97 and proteasome inhibition.
It was hypothesized that CCND1 and CDK4/6 upregulation by MG132 promotes RB1 hyperphosphorylation.

HCT116 cells [2] = test: qRT-PCR analysis of ATF3, DHFR and CCND1 RNAs; conditions: HCT116, qPCR
Protocol: as §1
To determine if the decreased expression of E2F1 target genes was caused by the downregulation of E2F1 levels due to ER stress, qPCR and western blot were used to evaluate E2F1 levels. […] The transcriptional activity of E2F1 can also be repressed through the formation of a complex with the tumor suppressor protein retinoblastoma (RB1) (FIG. 10B). […]

Securin = Securin degradation (CHX chase) in HCT116 cells; conditions: HCT116, 1 μM MG132, 50 μM CHX
Protocol: The concentration of MG132, CB-5083 and Baf A1 was 1 μM, 2 μM and 10 μM, respectively. […] FIGS. 13D-13E depict the half-life of Securin in HCT116 cells. HCT116 cells were treated with 1 μM of MG132, 2 μM of CB-5083, 1 μM of MG132 plus 2 μM of CB-5083 or DMSO. […] Cells were pretreated with […] for 1 h. […] For FIGS. 13B-13G, D, B, M, C and N represents DMSO, Baf A1, MG132, CB-5083 and NMS-873, respectively. Data are shown as mean±SD. Statistical analysis was performed using one-way ANOVA.

CC(C)C[C@@H](C=O)NC(=O)[C@H](CC(C)C)NC(=O)[C@H](CC(C)C)NC(=O)OCc1ccccc1 [MG132] (Cbz-Leu-Leu-Leu-aldehyde)
Phosphorylation of RB1 (HCT116 cells [1]; HCT116, 6 h, western blot): reduced phosphorylation of RB1
Global protein translation (phosphorylation state of 4E-BP1) (HCT116 cells [1]; HCT116, 6 h of treatments): inhibit global protein translation
p21 (CDKN1A) level (HCT116 cells [1]; HCT116, TMT and western blot): significantly upregulated
mRNA levels of the E2F1 target gene DHFR (HCT116 cells [2]): reducing the mRNA level of DHFR
Securin protein degradation from the cytosol and nucleus (Securin): blocked
